Assay results published in patent publication US11154569B2, “Ruthenium μ-nitrido complexes and their use as calcium uptake inhibitors” (CORNELL UNIVERSITY, priority 2018, dated 2021).
Where a chain is given by its changes, count along the chain named.

Columns and labels:
human MCU S259A mutant = target: T1, human MCU S259A mutant (Homo sapiens, UniProt Q8NE86, S259A); experiment: mCa2+ uptake in permeabilized HEK293T cells expressing MCU S259A mutant; format: cell-based; details: C-2 10 nM, Ru360 500 nM
T1 construct: stably expressing flag-tagged full-length human wild type MCU (MCU^WT) or the mutant S259A (MCU^S259A); Flag; expressed in transfected cells
T1 sequence (Q8NE86 51-351 S259A): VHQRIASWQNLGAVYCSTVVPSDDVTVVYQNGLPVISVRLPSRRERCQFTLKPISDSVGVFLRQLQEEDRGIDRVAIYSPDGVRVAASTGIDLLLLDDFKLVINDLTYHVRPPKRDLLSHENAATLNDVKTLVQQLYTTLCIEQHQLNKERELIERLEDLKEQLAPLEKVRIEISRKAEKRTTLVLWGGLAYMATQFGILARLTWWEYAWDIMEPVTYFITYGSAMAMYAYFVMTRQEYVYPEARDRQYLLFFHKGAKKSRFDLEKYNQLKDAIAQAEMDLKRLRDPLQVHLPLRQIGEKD
T1 sequence (Q9H4I9 48-107 partner limits assumed): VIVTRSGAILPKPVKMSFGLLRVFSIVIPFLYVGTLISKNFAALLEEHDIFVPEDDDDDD
Procedure: An equal number of IHEK293T (6×10^6 cells) were washed in Ca^2+ free PBS, pH 7.4, resuspended and permeabilized with 40 μg/ml digitonin in 1.5 ml of intracellular medium (ICM) composed of 120 mM KCl, 10 mM NaCl, 1 mM K—H2PO4, 20 mM HE PES-Tris, pH 7.2 and 2 μM thapsigargin to block the SERCA pump. All measurements were performed in the presence of 2 mM succinate. The permeabilized cells were loaded with JC-1 (800 nM) and Fura2-FF (0.5 μM), respectively. Fluorescence was monitored in a multi-wavelength excitation dual-wavelength emission fluorimeter. [Ca^2+]out is represented as the excitation ratio (340 nm/380 nm) of Fura2-FF/FA fluorescence and ΔΨm as the ratio of the fluorescence of J-aggregate (570 nm excitation/595 nm emission) and monomer (490 nm excitation/535 nm emission) forms of JC-1. A series of extra-mitochondrial Ca^2+ bolus (20 μM) was added and mitochondrial uncoupler, CCCP (2 jμM), were added at the indicated time points. All of the experiments were performed at 37° C. with constant stirring.
Having observed the high potency of C-2 compared to Ru360, the mechanism of action of C-2 was next investigated. […] HIEK293T cells stably expressing flag-tagged full-length human wild type MCU (MCU^WT) or the mutant S259A (MCU^S259A) were permeabilized and mCa^2+ uptake was measured as above.

[1] = target: T2, mitochondrial calcium uniporter (MCU) (Homo sapiens, UniProt Q8NE86); experiment: Cytoplasmic and mitochondrial Ca2+ dynamics in intact HeLa cells after histamine; format: cell-based; design: 30 min) and Rhod-2 AM; endogenous in cells; host or cells: HeLa (intact; some experiments with transfected Ca2+ sensors R-GECO1 and GCamP6-mt, MCU itself not transfected); details: for inhibition of MCU-mediated mCa2+ uptake in intact cells: intact HeLa cells, 50 μM for 30 minutes, histamine 100 μM, Rhod-2 AM and GCamP6-mt; for cytosolic calcium dynamics in intact cells: intact cells stimulated with histamine
T2 sequence (Q8NE86 51-351): T1 sequence (Q8NE86 51-351 S259A) with A209S
T2 sequence (Q9H4I9 48-107 partner limits assumed): T1 sequence (Q9H4I9 48-107 partner limits assumed)
Procedure: HeLa cells were loaded with Fluo-4-AM (5 μM; 30 min) and Rhod-2 AM (2 μM; 50 min) in extracellular medium as previously described (F. Perocchi et al, Nature 2010, 467, 291-296). Coverslips were mounted in an open perfusion microincubator at 37° C. and imaged. After 1 minute of baseline recording, histamine (100 μM) was added, and confocal images were recorded every 3 seconds at 488 and 561 nm excitation using a 40× oil objective. Images were analyzed and quantified by using ImageJ (NIH).
HeLa cells were transiently transfected with genetically encoded cytosolic and mitochondrial targeted Ca^2+ sensors R-GECO1 and GCamP6-mt plasmids. After 48 hours, the transfected cells were treated with MCU inhibitors (C1, C-2, and C-3; 50 μM). After 1 minute of baseline recording, histamine (100 μM) was added, and the change of R-GECO1 and GCamP6-mt fluorescence was measured with 488-nm and 561-nm excitation on a confocal microscope equipped with a 40× oil objective. Images were analyzed and quantified by using ImageJ (NIH).
Encouraged by the high cell permeability and mitochondrial selectivity of C-2, the capability of this complex to inhibit MCU-mediated mCa^2+ uptake in intact, non-permeabilized cells was investigated Briefly, HeLa cells were loaded with the cytosolic calcium concentration ([Ca^2+]) indicator Fluo-4 AM and the mitochondrial calcium concentration ([…]) indicator Rhod-2 AM in the presence or absence of C-1, C-2, and C-3 (50 μM). Cells were stimulated with the GPCR agonist histamine (100 μM) to rapidly elevate cCa^2+ levels to induce mCa^2+ uptake (Z. Dong et al., Mol. Cell 2017, 65, 1014-1028).
FIGS. 3A and 3B are graphs showing results of cytosolic ([Ca^2+]e, Fluo-4 AM) and mitochondrial ([Ca^2+]m, Rhod-2 AM) calcium transients in HeLa cells after treatment with histamine (100 μM) that were pretreated with or without C-1, C-2, or C-3 (50 μM) for 30 minutes. FIGS. 3C and 3D are graphs showing results of cytosolic ([Ca^2+]e, R-GECO) and mitochondrial ([Ca^2+]m, GCamP6-mt)) calcium transients in HeLa cells after treatment with histamine (100 μM) that were pretreated with or without C-1, C-2, or C-3 (50 μM) for 30 minutes. HeLa cells were co-transfected with R-GECO1 and GCamP6-mt. 48 hours post-transfection. Data are represented as mean±SEM. *p<0.05. n=3-6.

Molecule | effect of MCU S259A mutation on MCU inhibition compared to MCU WT cells (human MCU S259A mutant) | inhibition of MCU-mediated mCa2+ uptake in intact cells [1] | inhibition of MCU-mediated mCa2+ uptake in intact cells ([1]; listed as Ru265) | cytosolic calcium dynamics in intact cells [1] | cytosolic calcium dynamics in intact cells ([1]; listed as Ru265)
N.N.N.N.N.N.N.N.[Cl-].[Cl-].[N-3].[Ru+4].[Ru+4] [C-2, [Ru2(μ-N)(NH3)8Cl2]Cl3] | almost no change in the inhibitory activity | significant inhibition of MCU-mediated mCa^2+ uptake | most effective MCU-inhibition in non-permeabilized cells | normal cytosolic calcium dynamics | without any effect on intracellular Ca^2+ dynamics
N.N.N.N.N.N.N.N.O=C[O-].O=C[O-].[O-2].[Ru+3].[Ru+4] [Ru360, reference compound] | partial resistance to Ru360 inhibition | – | – | – | –
[Ru2(μ-N)(en)4Cl2]Cl3 [C-3] | – | did not show appreciable inhibition of mCa^2+ uptake | – | – | –
